Assay results reported in patent publication US9844550B2, “Phtalazinone derivatives and manufacturing process thereof” (ILDONG PHARM CO., LTD., priority 2013, dated 2017).

How the values were obtained:
[1] = system: LNCaP prostate cancer cell line; experiment: Cell viability assay (LNCaP); format: cell-based; conditions: Homo sapiens, 264 h; LNCaP cells, treated 11 days
Description: 4. Cell Viability Assay (LNCaP)
(§1) Cell viability assay was performed by using LNCaP cell line to measure cytotoxicity of compounds in the present invention. LNCaP prostate cancer cell line was seeded into 96-well plates at 37° C. under 5% CO2 atmosphere using RPMI-1640 (Hyclone) containing 10% FBS (Hyclone). After 24 hr incubation, cells were treated with the invented compounds at various concentrations for 11 days. The medium was changed every 3 to 4 day. 11 days later, A fluorescence reagent was used to determine the IC50 values.

[2] = system: Capan-1 pancreatic cancer cell line; experiment: Cell viability assay (Capan-1); format: cell-based; conditions: Homo sapiens, 240 h; Capan-1 cells, treated 10 days
Description: 3. Cell Viability Assay (Capan-1)
as §1, with “Capan-1” for “LNCaP”, “Capan-1 pancreatic” for “LNCaP prostate”, “IMDM (Sigma)” for “RPMI-1640 (Hyclone)”, “10” for “11”, “After 7-day incubation, the” for “The”, “changed. 10” for “changed every 3 to 4 day. 11”

[3] = molecular target: T1, Tankyrase-1 (Homo sapiens, UniProt O95271); experiment: Tankyrase-1 enzyme assay; format: biochemical; conditions: 1 hr at room temperature, chemiluminescent readout
T1 sequence (O95271 1-1327): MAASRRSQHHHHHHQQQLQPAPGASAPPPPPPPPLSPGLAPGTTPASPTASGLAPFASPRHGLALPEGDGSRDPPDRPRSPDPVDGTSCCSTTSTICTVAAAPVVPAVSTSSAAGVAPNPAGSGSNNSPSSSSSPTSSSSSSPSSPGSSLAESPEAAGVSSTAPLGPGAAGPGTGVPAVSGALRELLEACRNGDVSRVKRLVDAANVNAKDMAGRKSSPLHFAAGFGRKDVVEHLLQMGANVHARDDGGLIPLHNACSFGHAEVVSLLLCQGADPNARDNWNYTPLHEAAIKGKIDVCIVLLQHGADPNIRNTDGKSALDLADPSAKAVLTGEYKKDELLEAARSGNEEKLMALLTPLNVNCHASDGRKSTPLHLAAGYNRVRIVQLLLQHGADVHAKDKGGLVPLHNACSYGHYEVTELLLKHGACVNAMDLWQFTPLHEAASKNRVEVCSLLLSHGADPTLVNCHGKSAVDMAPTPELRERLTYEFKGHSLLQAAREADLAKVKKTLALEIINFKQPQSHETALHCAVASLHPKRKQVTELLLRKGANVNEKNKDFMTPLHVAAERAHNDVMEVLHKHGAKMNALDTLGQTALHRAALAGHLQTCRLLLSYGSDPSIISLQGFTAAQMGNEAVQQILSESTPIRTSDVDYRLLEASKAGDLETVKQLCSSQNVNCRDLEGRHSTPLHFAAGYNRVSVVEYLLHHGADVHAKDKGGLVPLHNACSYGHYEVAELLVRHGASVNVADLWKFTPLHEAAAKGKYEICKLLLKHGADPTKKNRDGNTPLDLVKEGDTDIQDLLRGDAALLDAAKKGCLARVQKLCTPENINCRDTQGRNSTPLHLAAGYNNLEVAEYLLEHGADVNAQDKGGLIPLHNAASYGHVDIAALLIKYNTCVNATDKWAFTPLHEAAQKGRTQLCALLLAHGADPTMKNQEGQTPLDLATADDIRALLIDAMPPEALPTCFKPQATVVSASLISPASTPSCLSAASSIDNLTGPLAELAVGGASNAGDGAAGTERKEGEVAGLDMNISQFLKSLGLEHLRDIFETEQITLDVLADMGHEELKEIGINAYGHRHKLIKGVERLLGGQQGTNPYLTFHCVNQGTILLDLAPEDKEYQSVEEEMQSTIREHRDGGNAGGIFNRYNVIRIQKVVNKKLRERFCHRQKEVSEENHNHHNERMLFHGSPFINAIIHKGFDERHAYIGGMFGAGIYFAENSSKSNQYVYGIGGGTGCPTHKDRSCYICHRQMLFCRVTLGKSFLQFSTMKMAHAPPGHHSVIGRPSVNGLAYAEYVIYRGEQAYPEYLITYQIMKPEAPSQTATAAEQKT
Description: 5. Tankyrase-1 Enzyme Assay
Tankyrase-1 enzyme assay was performed to determine Tankyrase-1 inhibitory activity of compounds in the present invention. The enzymatic reaction was conducted by coating the plate with substrates of tankyrase-1, and then the plate was washed. Compounds in the present invention serially diluted in DMSO were added to the reaction buffer activating tankyrase-1, and incubated for 1 hr at room temperature. After stopping the reaction, the plate was washed, and streptavidin-HRP was added to each well. IC50 was calculated by adding chemiluminescent substrate and immediately reading the sample in a microplate reader (Biotek).

[4] = system: MDA-MB-436 breast cancer cell line; experiment: Cell viability assay (MDA-MB-436); format: cell-based; conditions: Homo sapiens, 144 h; MDA-MB-436 cells, treated 6 days
Method in brief: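 MDA-MB-436 breast cancer cells in DMEM/F12 with 10% FBS, treated 24 h after seeding with graded compound concentrations for 6 days at 37 °C, 5% CO2, medium changed every 3 days. Viability read with a fluorescence reagent; IC50 derived.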

[5] = Mouse pharmacokinetics; format: in vivo; design: concentration or dose not given beside the values; conditions: Balb/c male mice, blood samples 15 to 1140 min, LC-MS/MS
Description: To evaluate the pharmacokinetics test, the invented compounds (from I-25 to I-1171) were determined as follows. Blood samples are collected at 15, 30, 60, 120, 240, 480, 1140 min. Quantification is by using a LC-MS/MS method specific to the selected compound. Pharmacokinetics parameters are calculated using WinNonLinnon compartmental analysis software.

[6] = system: Capan-1 Human pancreatic cancer cells; experiment: In vivo antitumoral efficacy, Capan-1 subcutaneous xenograft; conditions: Capan-1 xenograft in Balb/c nude mice
Description: To evaluate the in vivo antitumoral efficacy, the invented compounds (I-80˜171) was determined as a result to follows.
Capan-1 Human pancreatic cancer cells were established as subcutaneous xenografts by injection of 8×10^6 cells into the flanks of adult female Balb/c nude mice. Mice with established tumors (160-250 mm^3) were selected for study (n=6/treatment group). The test compounds were formulated in DW and administered orally (po) at a dose of 30˜200 mg/kg. The vehicle alone was administered to control groups. Animals were dosed 5 days per week (Monday through Friday) for 3 consecutive weeks.
Animals were weighed and tumor size was determined twice weekly by caliper measurements, and tumor volumes were calculated (volume=[…] (mm^3), where l and w refer to the larger and smaller dimensions collected at each measurement). The mean tumor volumes of each group were calculated. The change in mean treated tumor volume was divided by the change in mean control tumor volume, multiplied by 100 and subtracted from 100% to give the tumor growth inhibition for each group.

[7] = Solubility test in water; format: physicochemical; conditions: 25° C., atmospheric pressure
Description: To evaluate the solubility, the invented compounds (I-159, I-161 and I-171) was determined as follows. The compounds was dissolve in water (1 mL, 10 mL and 100 mL) at 25° C. under an atmospheric pressure.

| SMILES | IC50 [1] [nM] | IC50 [2] [nM] | IC50 [3] [nM] | IC50 [4] [nM] | AUC [5] [ng·h/mL] | % TGI ([6]; 100 mg/kg po qd x 5, 3 consecutive weeks) [%] | % TGI ([6]; 200 mg/kg po qd x 5, 3 consecutive weeks) [%] | Solubility class in words [7] | % TGI ([6]; 30 mg/kg po qd x 5, 3 consecutive weeks) [%] | % TGI ([6]; 60 mg/kg po qd x 5, 3 consecutive weeks) [%] |
| --- | --- | --- | --- | --- | --- | --- | --- | --- | --- | --- |
| O=C(c1cc(Cc2n[nH]c(=O)c3ccccc23)ccc1F)N1CC(NCC2CC2)C1 [Compound I-33, 4-(3-(3-((cyclopropylmethyl)amino)azetidine-1-carbonyl)-4-fluorobenzyl)phthalazin-1(2H)-one] | 300 to 1000 | 300 to 1000 | > 1000 | ≤ 5 | 1020 | – | – | – | – | – |
| N#CC1(NC2CN(C(=O)c3cc(Cc4n[nH]c(=O)c5ccccc45)ccc3F)C2)CCC1 [Compound I-99, 1-((1-(2-fluoro-5-((4-oxo-3,4-dihydrophthalazin-1-yl)methyl)benzoyl)azetidin-3-yl)amino)cyclobutanecarbonitrile] | 300 to 1000 | 300 to 1000 | 300 to 1000 | 5 to 50 | 586 | – | – | – | – | – |
| CC(C)NC1CN(C(=O)c2cc(Cc3n[nH]c(=O)c4ccccc34)ccc2F)C1.Cl [Compound I-159, 4-(4-fluoro-3-(3-(isopropylamino)azetidine-1-carbonyl)benzyl)phthalazin-1(2H)-one hydrochloride] | – | – | – | – | 472 | 59.4 | 69.4 | Sparingly soluble | – | – |
| CC(C)CNC1CN(C(=O)c2cc(Cc3n[nH]c(=O)c4ccccc34)ccc2F)C1.Cl [Compound I-161, 4-(4-fluoro-3-(3-(isobutylamino)azetidine-1-carbonyl)benzyl)phthalazin-1(2H)-one hydrochloride] | – | – | – | – | 1020 | – | – | Sparingly soluble | – | – |
| Cl.O=C(c1cc(Cc2n[nH]c(=O)c3ccccc23)ccc1F)N1CC(CNC2CC2)C1 [Compound I-171, 4-(3-(3-((cyclopropylamino)methyl)azetidine-1-carbonyl)-4-fluorobenzyl)phthalazin-1(2H)-one hydrochloride] | – | – | – | – | 673 | – | – | Sparingly soluble | 42.1 | 69.7 |
